Drawing on ChEMBL document CHEMBL3217671, “l-Penicillamine is a mechanism-based inhibitor of serine palmitoyltransferase by forming a pyridoxal-5-phosphate-thiazolidine adduct” (Medchemcomm, 2012), this text covers Activity and inhibition for 4 compounds.

Activity calls are given as the source filed them. The calls are words filed in the database; no cut-off is given here.

In assay [1] the target is T1, Serine palmitoyltransferase (Sphingomonas paucimobilis) (UniProt Q93UV0).
T1 sequence (whole entry): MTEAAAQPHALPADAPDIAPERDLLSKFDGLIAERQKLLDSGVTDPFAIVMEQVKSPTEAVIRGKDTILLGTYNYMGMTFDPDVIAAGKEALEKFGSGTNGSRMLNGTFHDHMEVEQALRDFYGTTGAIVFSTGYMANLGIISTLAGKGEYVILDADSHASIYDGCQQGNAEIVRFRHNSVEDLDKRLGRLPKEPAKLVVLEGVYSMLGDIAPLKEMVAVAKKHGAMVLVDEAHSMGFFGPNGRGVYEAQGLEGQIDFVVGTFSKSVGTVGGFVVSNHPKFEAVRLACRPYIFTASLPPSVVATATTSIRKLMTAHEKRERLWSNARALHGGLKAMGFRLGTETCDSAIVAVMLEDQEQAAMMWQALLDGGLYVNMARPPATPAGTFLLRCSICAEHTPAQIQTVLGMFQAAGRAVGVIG
Nature of the assay: Reversible inhibition of Sphingomonas paucimobilis recombinant SPT expressed in Escherichia coli BL21(DE3) assessed as restoration of enzyme activity at 5 mM after 30 mins by dialysis technique in presence of PLP relative to control. Further details: scale not given: the % may be the effect or the level left.

For assay [2], the target named is T1, Serine palmitoyltransferase (Sphingomonas paucimobilis). Nature of the assay: Inhibition of Sphingomonas paucimobilis recombinant SPT expressed in Escherichia coli BL21(DE3) assessed as remaining activity at 5 mM after 30 mins by dialysis technique relative to control.
Assay [3] has the same target. As to the kind of experiment: Reversible inhibition of Sphingomonas paucimobilis recombinant SPT expressed in Escherichia coli BL21(DE3) at 1 mM after 1 to 60 mins by UV-vis spectroscopic analysis in presence of potassium phosphate buffer.
For assay [4] the target is unchanged. As to the kind of experiment: Binding affinity to Sphingomonas paucimobilis recombinant SPT expressed in Escherichia coli BL21(DE3) at 10 mM by UV-vis spectroscopic analysis. As to conditions: TDE = time-dependent effect.
For assay [5] the target is unchanged. Nature of the assay: Reversible inhibition of Sphingomonas paucimobilis recombinant SPT expressed in Escherichia coli BL21(DE3) at 1 mM after 1 to 60 mins by UV-vis spectroscopic analysis in presence of Tris-HCl buffer.
The target is the same in assay [6]. Nature of the assay: Binding affinity to Sphingomonas paucimobilis recombinant SPT expressed in Escherichia coli BL21(DE3) at 10 mM after 30 mins by UV-vis spectroscopic analysis.
Assay [7] shares this target. As to the kind of experiment: Binding affinity to Sphingomonas paucimobilis recombinant SPT expressed in Escherichia coli BL21(DE3) at 5 mM by ESI-FT-ICR mass spectrometric analysis.
Assay [8] shares this target. Nature of the assay: Inhibition of Sphingomonas paucimobilis recombinant SPT expressed in Escherichia coli BL21(DE3) by membrane filtration assay.
The target is the same in assay [9]. Nature of the assay: Inhibition of Sphingomonas paucimobilis recombinant SPT expressed in Escherichia coli BL21(DE3) by dialysis technique in presence of PLP and potassium phosphate buffer.

In the case of `CC(C)(S)[C@@H](N)C(=O)O`, the figures for the Activity in [1] and in assay [2] were 57% and 34%, respectively.

Turning to `N[C@@H](CS)C(=O)O`, the inhibition entry in [3] is “inactive”. Also, the Activity entry in assay [4] was “tde”; in [1] it was 83%; in assay [2], 24%. Moreover, the inhibition entry in assay [5] was “Active”.

For `CC(C)(S)[C@H](N)C(=O)O`, the outcome in [6] and in [7] was Active. For the same compound, the inhibition entry in assay [8] and in assay [9] was “Active” throughout. Besides, the Activity in [1] turned out to be 80%; in assay [2] it was 3%.

For `N[C@H](CS)C(=O)O`, the Activity in assay [1] is 76%; in assay [2], 22%.
